Here are results for 18 compounds from US6207671A, “Cycloalkano-pyridines” (Bayer Aktiengesellschaft, priority 1996, dated 2001).

For assay [1], the target named is T1, cholesterol ester transfer protein (CETP) (Homo sapiens, UniProt P11597).
T1 construct: CETP is obtained from human plasma in partially purified form; from tissue; host or cells: human plasma
T1 sequence (P11597 18-493): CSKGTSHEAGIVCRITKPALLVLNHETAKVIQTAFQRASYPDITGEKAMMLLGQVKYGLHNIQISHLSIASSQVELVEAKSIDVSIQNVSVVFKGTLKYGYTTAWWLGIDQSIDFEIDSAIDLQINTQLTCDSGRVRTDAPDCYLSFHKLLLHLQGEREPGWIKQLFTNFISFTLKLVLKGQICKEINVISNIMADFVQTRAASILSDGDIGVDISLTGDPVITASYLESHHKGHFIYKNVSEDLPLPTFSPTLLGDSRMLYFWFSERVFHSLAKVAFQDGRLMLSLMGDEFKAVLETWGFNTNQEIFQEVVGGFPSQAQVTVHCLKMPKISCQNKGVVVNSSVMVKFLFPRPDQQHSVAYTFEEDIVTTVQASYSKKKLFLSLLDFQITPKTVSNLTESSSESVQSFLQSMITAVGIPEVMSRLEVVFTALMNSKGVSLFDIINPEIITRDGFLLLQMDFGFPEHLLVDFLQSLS
Nature of the assay: CETP inhibition test: transfer of 3H-cholesterol ester from human HD lipoproteins to biotinylated LD lipoproteins (SPA). The class given is biochemical. The conditions noted are these: human plasma CETP, 18 h, 37° C. As for the experimental part: CETP is obtained from human plasma in partially purified form by differential centrifugation and column chromatography and used for the test. To this end, human plasma is adjusted to a density of 1.21 g per ml using NaBr and centrifuged at 4° C. for 18 h at 50,000 rpm. The bottom fraction (d>1.21 g/ml) is applied to a Sephadex®phenyl-sepharose 4B (Pharmacia) column, washed with 0.15 M NaCl/0.001 M trisHCl pH 7.4 and then eluted with distilled water. The CETP-active fractions are pooled, dialysed against 50 mM Na acetate pH 4.5 and applied to a CM-Sepharose® (Pharmacia) column. The column is then eluted using a linear gradient (0-1 M NaCl). The pooled CETP fractions are dialysed against 10 mM trisHCl pH 7.4 and then further purified by chromatography on a Mono Q® column (Pharmacia).
50 ml of fresh human EDTA plasma are adjusted to a density of 1.12 using NaBr and centrifuged at 50,000 rpm for 18 h at 4° C. in a Ty 65 rotor. The upper phase is used to obtain cold LDL. The lower phase is dialysed against 3×4 l of PDB buffer (10 mM tris/HCl pH 7.4, […] NaCl, 1 mM EDTA, 0.02% NaN3). 20 μl of ^3 H-cholesterol (Dupont NET-725; 1 μC/μl dissolved in ethanol) are then added per 10 ml of retentate volume and the mixture is incubated under N2 at 37° C. for 72 h.
The mixture is then adjusted to the density 1.21 using NaBr and centrifuged at 20° C. for 18 h at 50,000 rpm in the Ty 65 rotor. The upper phase is recovered and the lipoprotein fractions are purified by gradient centrifugation. To this end, the isolated, labelled lipoprotein fraction is adjusted to a density of 1.26 using NaBr. Each 4 ml of this solution are covered with a layer of 4 ml of a solution of density 1.21 and 4.5 ml of a solution of 1.063 (density solutions from PDB buffer and NaBr) in centrifuge tubes (SW 40 rotor) and then centrifuged in the SW 40 rotor for 24 h at 38,000 rpm and 20° C. The intermediate layer lying between the densities 1.063 and 1.21 and containing the labelled HDL is dialysed at 4° C. against 3×100 volumes of PDB buffer.
The retentate contains radiolabelled ^3 H-CE-HDL which, adjusted to about 5×10^6 cmp per ml, is used for the test.
To test the CETP activity, the transfer of ^3 H-cholesterol ester from human HD lipoproteins to biotinylated LD lipoproteins is measured.
The reaction is ended by addition of streptavidin-SPA®beads (Amersham) and the transferred radioactivity is determined directly in a liquid scintillation counter.
In the test mixture, 10 μl of HDL-^3 H-cholesterol ester (~50,000 cpm) are incubated at 37° C. for 18 h with 10 μl of biotin-LDL (Amersham) in 50 mM Hepes/0.15 M NaCl/0.1% bovine serum albumin/0.05% NaN3 pH 7.4 with 10 μl of CETP (1 mg/ml) and 3 μl of solution of the substance to be tested (dissolved in 10% DMSO/1% RSA). 200 μl of the SPA-streptavidin bead solution (TRKQ 7005) are then added, the mixture is incubated further for 1 h with shaking and then measured in the scintillation counter. As controls, corresponding incubations with 10 μl of buffer, 10 μl of CETP at 4° C. and 10 μl of CETP at 37° C. are used.
The activity transferred into the control mixtures with CETP at 37° C. is rated as 100% transfer. The substance concentration at which this transfer is reduced by half is indicated as the IC50 value.

In another assay the test system is CETP. Nature of the assay: Ex vivo activity: CETP activity in serum of treated hamsters (modified CETP test). Details: species or system Syrian golden hamsters. The conditions noted are these: for % Inhibition at 30 mg/kg: ex vivo CETP activity in hamster serum; for ED50 values for ex vivo activity: hamster serum, up to 24 hours after administration. As for the experimental part: Syrian golden hamsters from in-house breeding are anaesthetized after fasting for 24 hours (0.8 mg/kg of atropine, 0.8 mg/kg of Ketavet® s.c., 30'later 50 mg/kg of Nembutal i.p.). The jugular vein is then exposed and cannulated. The test substance is dissolved in a suitable solvent (as a rule Adalat placebo solution: 60 g of glycerol, 100 ml of H2 O, PEG-400 to 1000 ml) and administered to the animals via a PE catheter inserted in the jugular vein. The control animals receive the same volume of solvent without test substance. The vein is then tied off and the wound is closed. The administration of the test substances can also be carried out p.o., by orally administering the substances dissolved in DMSO and suspended in 0.5% Tylose by means of a stomach tube. The control animals receive identical volumes of solvent without test substance.
After various times--up to 24 hours after administration--blood (about 250 μl) is taken from the animals by puncture of the retro-orbital venous plexus. Clotting is ended by incubation at 4° C. overnight, then centrifugation is carried out at 6000×g for 10 minutes. In the serum thus obtained, CETP activity is determined by the modified CETP test. As for the CETP test described above, the transfer of ^3 H-cholesterol ester from HD lipoproteins to biotinylated LD lipoproteins is measured.
The reaction is ended by addition of Streptavidin-SPA®beads (Amersham) and the transferred radioactivity is determined directly in the liquid scintillation counter.
The test mixture is carried out as described under "CETP test". For the testing of the serum, only 10 μl of CETP are replaced by 10 μl of the corresponding serum samples. As controls, corresponding incubations with sera of untreated animals are used.
The activity transferred in the control mixtures with control sera is rated as 100% transfer. The substance concentration at which this transfer is reduced to a half is indicated as the ED50 value.

In another assay the test system is HDL cholesterol. Nature of the assay: In vivo activity: oral action on lipoproteins and triglycerides in hamsters (HDL rise). The conditions noted are these: dose 2 × 3 mg/kg, up to 24 hours. Also noted: species or system Syrian golden hamsters. How it is done:
In experiments to determine the oral action on lipoproteins and triglycerides, test substance dissolved in DMSO and 0.5% Tylose suspended by means of a stomach tube are administered orally to Syrian golden hamsters from in-house breeding. To determine the CETP activity, blood (about 250 μl) is taken by retro-orbital puncture before the start of the experiment. The test substances are then administered orally by means of a stomach tube. The control animals receive identical volumes of solvents without test substance. The feed is then withdrawn from the animals and blood is taken at various times--up to 24 hours after substance administration--by puncture of the retro-orbital venous plexus. Clotting is ended by incubation at 4° C. overnight, then centrifugation at 6000×g is carried out for 10 minutes. In the serum thus obtained, the content of cholesterol and triglycerides is determined with the aid of modified commercially available enzyme tests (cholesterol enzymatic 14366 Merck, triglycerides 14364 Merck). Serum is suitably diluted using physiological saline solution.
100 μl of serum dilution are mixed with 100 μl of […] in 96-hole plates and incubated at room temperature for 10 minutes. The optical density is then determined at a wavelength of 492 nm using an automatic plate-reading apparatus. The triglyceride or cholesterol concentration contained in the samples is determined with the aid of a standard curve measured in parallel.
The determination of the content of HDL cholesterol is carried out according to the manufacturer's instructions after precipitation of the ApoB-containing lipoproteins by means of a reagent mixture (Sigma 352-4 HDL cholesterol reagent).

The term IC50 denotes the point on the concentration scale where inhibition reaches its midpoint. Read a low IC50 as greater potency. In assay [1], `OC1CC2(CCCC2)Cc2nc(C3CCCC3)c(C(F)c3ccc(C(F)(F)F)cc3)c(-c3ccc(F)cc3)c21` (single isomer, unassigned) [Example 300] came in with a 50% inhibitory concentration (IC50) of 0.2 nM.
For orientation: % Inhibition means the share of the control response that was lost under treatment. Read a high % Inhibition as a strong effect. For `CC1(C)Cc2nc(C3CCCC3)c(C(F)c3ccc(Cl)c(C(F)(F)F)c3)c(-c3ccc(F)cc3)c2C(O)C1` (single isomer, unassigned) [Example 170], in the assay on CETP, the “% Inhibition at 30 mg/kg” value was found to be 60.1% and the “ED50 values for ex vivo activity” value was below 30 mg/kg.
Regarding `OCC1Cc2nc(C3CCCC3)c(C(F)c3ccc(C(F)(F)F)cc3)c(-c3ccc(F)cc3)c2C(O)C1` (single isomer, unassigned) [Example 211], the “% HDL rise” value in the assay on HDL cholesterol is listed as “+7.54%”.
With `CC1(C)Cc2nc(C3CCCC3)c(C(F)c3ccc4ccccc4c3)c(-c3ccc(F)cc3)c2C(O)C1` (single isomer, unassigned) [Example 184], in the assay on CETP, the “% Inhibition at 30 mg/kg” value worked out at 53.5% and the “ED50 values for ex vivo activity” value was below 30 mg/kg.
In the case of `CC(C)c1nc2c(c(-c3ccc(F)cc3)c1C(F)c1ccc(C(F)(F)F)cc1)C(O)CC1CC21` (single isomer, unassigned) [Example 237], in assay [1], the IC50 is 800 nM. The “% HDL rise” value with HDL cholesterol is listed as “+21.03%”.
Consider `OC1CC2(CCC2)Cc2nc(C3CCCC3)c(C(F)c3ccc(C(F)(F)F)cc3)c(-c3ccc(F)cc3)c21` (stereo not drawn) [Example 329], for which, in assay [1], the IC50 amounted to 1.5 nM.
On the same count and under the same terms, for `CC1(C)Cc2nc(C3CCCC3)c(C(N=[N+]=[N-])c3ccc(C(F)(F)F)cc3)c(-c3ccc(F)cc3)c2C(O)C1` (stereo not drawn) [Example 195] the value was 750 nM.
Consider `CC1Cc2nc(C3CCCC3)c(C(F)c3ccc(C(F)(F)F)cc3F)c(-c3ccc(F)cc3)c2C(O)C1` (single isomer, unassigned) [Example 181], for which, in the assay on CETP, the “% Inhibition at 30 mg/kg” value was found to be 46.4% and the “ED50 values for ex vivo activity” value was above 30 mg/kg.
In assay [1], `OC1CC2(CC2)Cc2nc(C3CCCC3)c(C(F)c3ccc(C(F)(F)F)cc3)c(-c3ccc(F)cc3)c21` (single isomer, unassigned) [Example 319] gave a half-maximal inhibitory concentration (IC50) of 50 nM.
In the case of `CC(C)c1nc2c(c(-c3ccc(F)cc3)c1C(F)c1ccc(C(F)(F)F)cc1)C(O)CC1(CC1)C2` (single isomer, unassigned) [Example 312], in assay [1], 60 nM corresponded to half-maximal inhibition (IC50).
`CC(C)c1nc2c(c(-c3ccc(F)cc3)c1C(F)c1ccc(C(F)(F)F)cc1)C(O)CC1(CCCC1)C2` (single isomer, unassigned) [Example 291]: 30 nM corresponded to half-maximal inhibition in assay [1] (IC50).
Turning to `CC1(C)Cc2nc(C3CCCC3)c(C(F)c3ccc4c(c3)OC(F)(F)O4)c(-c3ccc(F)cc3)c2C(O)C1` (single isomer, unassigned) [Example 244], in assay [1], the IC50 was found to be 60 nM.
On to `CC(C)c1nc2c(c(-c3ccc(F)cc3)c1C(F)c1ccc(C(F)(F)F)cc1)C(O)CC(C)(C)C2` (single isomer, unassigned) [Example 90], for which the half-maximal inhibitory concentration (IC50) in assay [1] amounted to 60 nM.
Consider `CC1Cc2nc(C(C)C)c(C(F)c3ccc(C(F)(F)F)cc3)c(-c3ccc(F)cc3)c2C(O)C1` (stereo not drawn) [Example 117], for which, in the assay on CETP, the “% Inhibition at 30 mg/kg” value worked out at 86.0% and the “ED50 values for ex vivo activity” value is on record as below 30 mg/kg.
As for `OC1CC(C2CC2)Cc2nc(C3CCCC3)c(C(F)c3ccc(C(F)(F)F)cc3)c(-c3ccc(F)cc3)c21` (stereo not drawn) [Example 209], the “% HDL rise” value with HDL cholesterol is given as “+25.94%”.
On to `CC1(C)Cc2nc(C3CCCC3)c(C(F)c3ccc(C(F)(F)F)cc3)c(-c3ccc(F)cc3)c2C(O)C1` (single isomer, unassigned) [Example 91], for which the “% HDL rise” value in the assay on HDL cholesterol was “+12.58%”.
`CC(C)c1nc2c(c(-c3ccc(F)cc3)c1C(F)c1ccc(C(F)(F)F)cc1)C(O)CC1(CC1)C2` (single isomer, unassigned) [Example 313] came in with an IC50 in assay [1] of 0.2 nM.
On to `CC1Cc2nc(C(C)C)c(C(F)c3ccc(C(F)(F)F)cc3)c(-c3ccc(F)cc3)c2C(O)C1` (stereo not drawn) [Example 115], for which, in the assay on CETP, the “% Inhibition at 30 mg/kg” value worked out at 61.9% and the “ED50 values for ex vivo activity” value was below 30 mg/kg.
